The text below walks through data of EP0598753B1, “MANGANESE COMPLEXES OF NITROGEN-CONTAINING MACROCYCLIC LIGANDS EFFECTIVE AS CATALYSTS FOR DISMUTATING SUPEROXIDE” (MONSANTO COMPANY, priority 1991, dated 1993).

“Also recorded” adds a separate entry of the source.

The assay in a line: Stopped-flow kinetic analysis of catalytic dismutation of superoxide. The following applies: for kCAT: catalytic rate constant for dismutation of superoxide, pH 8.1 and 21°C; for SOD activity (catalysis of the dismutation of superoxide), in words: stopped-flow kinetic analysis. The format is biochemical. An excerpt: Stopped-flow kinetic analysis is an accurate and direct method for quantitatively monitoring the decay rates of superoxide in water.
For the attainment of consistent and accurate measurements all reagents were biologically clean and metal-free. To achieve this, all buffers (Calbiochem) were biological grade, metal-free buffers and were handled with utensils which had been washed first with 0.1 N HCl, followed by purified water, followed by a rinse in a 10^-4 M EDTA bath at pH 8, followed by a rinse with purified water and dried at 65°C for several hours. Dry DMSO solutions of potassium superoxide (Aldrich) were prepared under a dry, inert atmosphere of argon in a Vacuum Atmospheres dry glovebox using dried glassware. The DMSO solutions were prepared immediately before every stopped-flow experiment. A mortar and pestle were used to grind the yellow solid potassium superoxide (~100 mg). The powder was then ground with a few drops of DMSO and the slurry transferred to a flask containing an additional 25 ml of DMSO. The resultant slurry was stirred for 1/2 h and then filtered. […] These solutions were transferred to a glovebag under nitrogen in sealed vials prior to loading the syringe under nitrogen. It should be noted that the DMSO/superoxide solutions are extremely sensitive to water, heat, air, and extraneous metals. A fresh, pure solution has a very slight yellowish tint.
Water for buffer solutions was delivered from an in-house deionized water system to a Barnstead Nanopure Ultrapure Series 550 water system and then double distilled, first from alkaline potassium permanganate and then from a dilute EDTA solution. For example, a solution containing 1.0 g of potassium permanganate, 2 liters of water and additional sodium hydroxide necessary to bring the pH to 9.0 were added to a […] fitted with a solvent distillation head. This distillation will oxidize any trace of organic compounds in the water. The final distillation was carried out under nitrogen in a 2.5-liter flask containing 1500 ml of water from the first still and 1.0 x 10^-6M EDTA. This step will remove remaining trace metals from the ultrapure water. To prevent EDTA mist from volatilizing over the reflux arm to the still head, the 40-cm vertical arm was packed with glass beads and wrapped with insulation. This system produces deoxygenated water that can be measured to have a conductivity of less than 2.0 nanomhos/cm^2.
The stopped-flow spectrometer system was designed and manufactured by Kinetic Instruments Inc. (Ann Arbor, MI) and was interfaced to a MAC IICX personal computer. The software for the stopped-flow analysis was provided by Kinetics Instrument Inc. and was written in QuickBasic with MacAdios drivers. Typical injector volumes (0.10 ml of buffer and 0.006 ml of DMSO) were calibrated so that a large excess of water over the DMSO solution were mixed together. […] Aqueous solutions to be mixed with the DMSO solution of superoxide were prepared using 80 mM concentrations of the Hepes buffer, pH 8.1 (free acid + Na form). One of the reservoir syringes was filled with 5 ml of the DMSO solution while the other was filled with 5 ml of the aqueous buffer solution. The entire injection block, mixer, and spectrometer cell were immersed in a thermostatted circulating water bath with a temperature of 21.0 ± 0.5°C.
Prior to initiating data collection for a superoxide decay, a baseline average was obtained by injecting several shots of the buffer and DMSO solutions into the mixing chamber. These shots were averaged and stored as the baseline.

“Manganese(II)(2,12-Dimethyl-3,7,11,17-tetraazabicyclo[11.3.1]heptadeca-1(17),2,11,13,15 -pentaenel] Chloride [Example 23]”: under “given as ND”, the kCAT entry is “ND (Manganese(II) complex has no detectable superoxide dismutase activity. (kcat<10^6M^-1sec^-1))”.
For the substance MnCl2, the “SOD activity (catalysis of the dismutation of superoxide), in words” value (shortened to “SOD activity”) is recorded as “failed to perturb the second order spontaneous decay of superoxide; also recorded: has no SOD activity”. Moreover, the kCAT entry (given as ND) is on record as “ND (Manganese(II) complex has no detectable superoxide dismutase activity. (kcat<10^6M^-1sec^-1))”.
On the same counts, the results for “[Manganese(II)1,4,7,10,13-Pentamethyl-1,4,7,10,13-pentaazacyclopentadecane)] Chloride [Example 19]” are “ineffective at dismutating superoxide” and “ND (Manganese(II) complex has no detectable superoxide dismutase activity. (kcat<10^6M^-1sec^-1))”.
For “[Manganese(II)1,4,8,12-tetramethyl-1,4,8,12-tetraazacyclopentadecane)] Chloride [Example 18]” the same measures were “do not have SOD activity” and “ND (Manganese(II) complex has no detectable superoxide dismutase activity. (kcat<10^6M^-1sec^-1))”.
For “[Manganese(II)1,5,9,13-Tetraazacyclohexadecane)] Chloride [Example 10]” the same measures were “are not catalysts for the dismutation of superoxide” and “ND (Manganese(II) complex has no detectable superoxide dismutase activity. (kcat<10^6M^-1sec^-1))”.
Regarding “[Manganese(II) (1,4,8,11-Tetraazacyclotetradecane)] Chloride [Example 20]”, the “SOD activity” value is recorded as “are not catalysts for the dismutation of superoxide”. Besides, the kCAT result (given as ND) was “ND (Manganese(II) complex has no detectable superoxide dismutase activity. (kcat<10^6M^-1sec^-1))”.
For “[Manganese(II)(1,4,7,10,14-Pentaazacycloheptadecane)] Chloride [Example 12]” the same measures were “ineffective at catalyzing the dismutation of superoxide” and “ND (Manganese(II) complex has no detectable superoxide dismutase activity. (kcat<10^6M^-1sec^-1))”.
On the same counts, the results for “[Manganese(II)(1,4,8,11-Tetramethyl-1,4,8,11-tetraazacyclotetradecane)]Chloride [Example 25]” are “are not catalysts for the dismutation of superoxide” and “ND (Manganese(II) complex has no detectable superoxide dismutase activity. (kcat<10^6M^-1sec^-1))”.
For “[Manganese(II)(1,4,8,12-Tetraazacyclopentadecane)] Chloride [Example 21]”, the “SOD activity” value was “do not have SOD activity”. Further, the kCAT result (given as ND) is listed as “ND (Manganese(II) complex has no detectable superoxide dismutase activity. (kcat<10^6M^-1sec^-1))”.
On the same counts, the results for “[Manganese(II)(1-Methyl-1,4,7,10,13-pentaazacyclopentadecane)]Chloride [Example 15]” are “ineffective at dismutating superoxide” and “ND (Manganese(II) complex has no detectable superoxide dismutase activity. (kcat<10^6M^-1sec^-1))”.
On the same counts, the results for “[Manganese(II)(1-Methyl-1,4,7,11,14-pentaazacyclohexadecane)] Chloride [Example 16]” are “ineffective at catalyzing the dismutation of superoxide” and “ND (Manganese(II) complex has no detectable superoxide dismutase activity. (kcat<10^6M^-1sec^-1))”.
Regarding “[Manganese(II)(2,7,12-Trimethyl-3,7,11,17-tetraazabicyclo[11.3.1]heptadeca-1(17),2, 11,13,15-pentaene)] Chloride [Example 24]”, the kCAT entry (given as ND) is given as “ND (Manganese(II) complex has no detectable superoxide dismutase activity. (kcat<10^6M^-1sec^-1))”.
Still for that read-out and setting: in the case of “[Manganese(II)(2,13-Dimethyl-3,6,9,12,18-pentaazabicyclo[12.3.1]octadeca-1(18)2,12,14,16 -pentaene)]Chloride [Example 26]” it was “ND (Manganese(II) complex has no detectable superoxide dismutase activity. (kcat<10^6M^-1sec^-1))”.
On the same count and under the same terms, in the case of “[Manganese(II)(5,7,7,12,14,14-Hexamethyl-1,4,8,11-tetraazacyclotetradeca-4,11-diene)] Chloride [Example 22]” it was “ND (Manganese(II) complex has no detectable superoxide dismutase activity. (kcat<10^6M^-1sec^-1))”.
Consider “[Manganese(II)[1,4,7,10,13,16,19-Heptaazaacycloheneicosane)]Chloride [Example 14]”, for which the “SOD activity” value was “are not catalysts for the dismutation of superoxide”. For the same substance, the kCAT entry (given as ND) is listed as “ND (Manganese(II) complex has no detectable superoxide dismutase activity. (kcat<10^6M^-1sec^-1))”.
For “[Manganese(II)[1,4,7,10,13,16-hexaazacyclooctadecane)] Chloride [Example 13]” the same measures were “are not catalysts for the dismutation of superoxide” and “ND (Manganese(II) complex has no detectable superoxide dismutase activity. (kcat<10^6M^-1sec^-1))”.
On the same counts, the results for “[Manganese(II)[1-oxa-4,7,10,13-Tetrazacyclopentadecane)] Chloride [Example 17]” are “do not have SOD activity” and “ND (Manganese(II) complex has no detectable superoxide dismutase activity. (kcat<10^6M^-1sec^-1))”.
Regarding “[Manganese(II)dichloro(2,3-Benzo-1,4,7,10,13-pentaazacyclopentadecane)] [Example 37]”, the kCAT stood at 4.6e+06 M⁻¹ s⁻¹.
Still for that read-out and setting: the figure for “[Manganese(II)dichloro(3,6,9,12,18-Pentaazabicyclo(12.3.1)octadecane)] [Example 38]” is 5.28e+06 M⁻¹ s⁻¹; for “[Manganese(II)dichloro(trans-2,3-Cyclohexano-1,4,7,10,13-pentaazacyclopentadecane)] [Example 35]” it is 3.44e+07 M⁻¹ s⁻¹; for “[Manganese(II)nitrate(1,4,7,10,13-pentaazacyclopentadecane)] Nitrate [Example 9]” it is 2.3e+07 M⁻¹ s⁻¹.
In the case of “[Manganese(III)(1,4,7,11,14-Pentaazacycloheptadecane)] Chloride [Example 11]”, the “SOD activity” value is on record as “ineffective at catalyzing the dismutation of superoxide”. Further, the kCAT result (given as ND) is recorded as “ND (Manganese(II) complex has no detectable superoxide dismutase activity. (kcat<10^6M^-1sec^-1))”.
“{Manganese(II)dichloro[2-(1-Naphthyl)-1,4,7,10,13-pentaazacyclopentadecane]} [Example 32]” returned a kCAT of 6.98e+06 M⁻¹ s⁻¹.
Still for that read-out and setting: the figure for “{Manganese(II)dichloro[(2S,8R)-Dimethyl-1,4,7,10,13-penta-azacyclopentadecane]} [Example 34]” is 7.08e+06 M⁻¹ s⁻¹; for “{Manganese(II)dichloro[(2S, 5R)-Dimethyl-1,4,7,10,13-pentaazacyclopentadecane]} [Example 33]” it is 2.9e+07 M⁻¹ s⁻¹.
